Assay results from patent US9120791B2, “Indolizine compounds, a process for their preparation and pharmaceutical compositions containing them” (LES LABORATOIRES SERVIER, priority 2012, dated 2015).
Structures can show the parent of a compound that is named as a salt. Where two headings read alike, the source gives them in different places.

Key:
[1] = system: RS4;11 leukaemia tumour line; test: In vitro cytotoxicity (Microculture Tetrazolium Assay, 48 hours); type: cell-based; conditions: RS4;11 cells, 48 hours exposure, MTT, concentration that inhibits cell viability by 50%, read-out: IC50 (nM) MTT RS4
Experimental: The cytotoxicity studies were carried out on the RS4;11 leukaemia tumour line.
The cells are distributed onto microplates and exposed to the test compounds for 48 hours.

[2] = system: caspase 3; test: Induction of caspase activity in vivo (DEVDase activity in tumour lysates, RS4;11 xenograft); set-up: species or system mice (SCID strain); conditions: oral treatment, 16 hours after treatment, RS4;11 xenograft in SCID mice; for Activation factor (versus control), DEVDase activity in the tumours / fold induction at 50 mg/kg: 50 mg/kg
Experimental: The ability of the compounds of the invention to activate caspase 3 is evaluated in a xenograft model of RS4;11 leukaemia cells.
1×10^7 RS4;11 cells are grafted sub-cutaneously into immunosuppressed mice (SCID strain). 25 to 30 days after the graft, the animals are treated orally with the various compounds. Sixteen hours after treatment, the tumour masses are recovered and lysed, and the caspase 3 activity is measured in the tumour lysates.
This enzymatic measurement is carried out by assaying the appearance of a fluorigenic cleavage product (DEVDase activity, Promega). It is expressed in the form of an activation factor corresponding to the ratio between the two caspase activities:the activity for the treated mice divided by the activity for the control mice.

[3] = target: Bcl-2 protein (Homo sapiens (Human), UniProt P10415); test: Inhibition of Bcl-2 by the fluorescence polarisation technique; type: binding; conditions: fluorescence polarisation test; concentration that inhibits fluorescence polarisation by 50%; read-out: IC50 (nM) Bcl-2 FP
Chain of Bcl-2 protein (P10415 whole entry): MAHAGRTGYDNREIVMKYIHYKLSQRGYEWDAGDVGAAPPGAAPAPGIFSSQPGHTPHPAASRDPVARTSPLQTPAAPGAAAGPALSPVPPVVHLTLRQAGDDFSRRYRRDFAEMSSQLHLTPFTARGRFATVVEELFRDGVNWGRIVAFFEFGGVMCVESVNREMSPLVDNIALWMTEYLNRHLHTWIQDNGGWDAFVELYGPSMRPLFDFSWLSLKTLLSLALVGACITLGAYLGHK
Experimental: The fluorescence polarisation tests were carried out on microplates (384 wells). […] After incubation for 2 hours, the fluorescence polarisation is measured.

[4] = Mus musculus, read-out: Activation factor (versus control), DEVDase activity in the tumours

Row | IC50 [3] [nM] | Molecule | IC50 ([1]; Homo sapiens) [nM] | fold induction at 100 mg/kg ([2]; Mus musculus, 100 mg/kg, read-out: Activation factor (versus control), DEVDase activity in the tumours) | IC50 [1] [nM] | Activation factor (versus control), DEVDase activity in the tumours [2] | fold induction at 50 mg/kg [2, 4]
1 | 20 | Cc1ccc(N(C(=O)c2cc(-c3cc4c(cc3C(=O)N3Cc5ccccc5C[C@H]3CN3CCOCC3)OCO4)n3c2CCCC3)c2ccc(O)cc2)cc1 [Example 2, N-(4-Hydroxyphenyl)-N-(4-methylphenyl)-3-{6-[((3S)-3-(4-morpholinylmethyl)-3,4-dihydro-2(1H)-isoquinolinyl)carbonyl]-1,3-benzodioxol-5-yl}-5,6,7,8-tetrahydro-1-indolizine carboxamide hydrochloride] | 49.8 | 27.8 |  |  | 
2 | 19 | Cc1ccc(N(C(=O)c2cc(-c3cc4c(cc3C(=O)N3Cc5ccccc5C[C@H]3CN3CCOCC3)OCO4)n3c2CCCC3)c2ccc(O)cc2)cc1F [Example 4, N-(3-Fluoro-4-methylphenyl)-N-(4-hydroxyphenyl)-3-{6-[((3S)-3-(4-morpholinylmethyl)-3,4-dihydro-2(1H)-isoquinolinyl)carbonyl]-1,3-benzodioxol-5-yl}-5,6,7,8-tetrahydro-1-indolizine carboxamide hydrochloride] | 27.1 |  |  |  | 29.2
3 | 15 | O=C(c1cc(-c2cc3c(cc2C(=O)N2Cc4ccccc4C[C@H]2CN2CCOCC2)OCO3)n2c1CCCC2)N(c1ccc(O)cc1)c1ccc2c(c1)CCN2 [Example 8, N-(2,3-Dihydro-1H-indol-5-yl)-N-[4-(hydroxy)phenyl]-3-{6-[((3S)-3-(4-morpholinylmethyl)-3,4-dihydro-2(1H)-isoquinolinyl)carbonyl]-1,3-benzodioxol-5-yl}-5,6,7,8-tetrahydro-1-indolizine carboxamide bis(hydrochloride)] | 25.6 |  |  |  | 9.8
4 | 13 | CN1CCc2cc(N(C(=O)c3cc(-c4cc5c(cc4C(=O)N4Cc6ccccc6C[C@H]4CN4CCOCC4)OCO5)n4c3CCCC4)c3ccc(O)cc3)ccc21 [Example 9, N-[4-(Hydroxy)phenyl]-N-(1-methyl-2,3-dihydro-1H-indol-5-yl)-3-{6-[((3S)-3-(4-morpholinylmethyl)-3,4-dihydro-2(1H)-isoquinolinyl)carbonyl]-1,3-benzodioxol-5-yl}-5,6,7,8-tetrahydro-1-indolizine carboxamide hydrochloride] | 16.1 |  |  |  | 20.6

Second part, the molecule before the results:

Row | Molecule | IC50 [3] [nM] | IC50 ([1]; Homo sapiens) [nM] | fold induction at 100 mg/kg ([2]; Mus musculus, 100 mg/kg, read-out: Activation factor (versus control), DEVDase activity in the tumours) | IC50 [1] [nM] | Activation factor (versus control), DEVDase activity in the tumours [2] | fold induction at 50 mg/kg [2, 4]
5 | Cl.O=C(c1cc(-c2cc3c(cc2C(=O)N2Cc4ccccc4C[C@H]2CN2CCOCC2)OCO3)n2c1CCCC2)N(c1ccc(O)cc1)c1ccc(Cl)cc1 [Example 3, N-(4-Chlorophenyl)-N-(4-hydroxyphenyl)-3-{6-[((3S)-3-(4-morpholinylmethyl)-3,4-dihydro-2(1H)-isquinolinyl)carbonyl]-1,3-benzdioxol-5-yl}-5,6,7,8-tetrahydro-1-indolizine carboxamide hydrochloride] |  |  |  | 44.7 | 5.7 (50 mg/kg) | 
6 | Cl.O=C(c1cc(-c2cc3c(cc2C(=O)N2Cc4ccccc4C[C@H]2CN2CCOCC2)OCO3)n2ccccc12)N(c1ccccc1)c1ccc(O)cc1 [Example 58, N-(4-Hydroxyphenyl)-3-{6-[((3S)-3-(4-morpholinylmethyl)-3,4-dihydro-2(1H)-isoquinolinyl)carbonyl]-1,3benzodioxol-5-yl}-N-phenyl-indolizine carboxamide hydrochloride] |  |  |  | 40.1 | 23.3 (50 mg/kg) | 
7 | Tert-butyl 8-{[4-hydroxy(1-methyl-1H-indol-5-yl)anilino]carbonyl}-6-{6-[((3S)-3-(4-morpholinylmethyl)-3,4-dihydro-2(1H)-isoquinolinyl)carbonyl]-1,3-benzodioxol-5-yl}-3,4-dihydropyrrolo[1,2-a]pyrazine-2(1H)-carboxylate [Example 72] | 220 |  |  | 270 |  | 
